Laboratory results from article PMC12337190, “A bacterial actin with high ATPase activity regulates the polymerization of a partner MreB isoform essential for Spiroplasma swimming motility” (The Journal of Biological Chemistry, 2025).

Tests used:
[1] = molecular target: T1, PrS-SpeMreB1 (Spiroplasma eriocheiris, UniProt A0A0H3XI00); assay: sedimentation assay of polymerization; format: biochemical; settings: 2 mM ADP, 1 M NaCl, 2 mM MgCl2, pH 8.0, room temperature; polymerizes with nucleotide, not nucleotide-free
T1 construct: gene mreB1; full-length SpeMreB1; N-terminal 6xHis, two ProteinS (M. xanthus) solubilization tags, factor Xa site; C-terminal 6xHis; tags kept; 560 residues with tags; E. coli BL21(DE3), codon-optimized; monomeric gel filtration fraction
T1 sequence (A0A0H3XI00 1-346): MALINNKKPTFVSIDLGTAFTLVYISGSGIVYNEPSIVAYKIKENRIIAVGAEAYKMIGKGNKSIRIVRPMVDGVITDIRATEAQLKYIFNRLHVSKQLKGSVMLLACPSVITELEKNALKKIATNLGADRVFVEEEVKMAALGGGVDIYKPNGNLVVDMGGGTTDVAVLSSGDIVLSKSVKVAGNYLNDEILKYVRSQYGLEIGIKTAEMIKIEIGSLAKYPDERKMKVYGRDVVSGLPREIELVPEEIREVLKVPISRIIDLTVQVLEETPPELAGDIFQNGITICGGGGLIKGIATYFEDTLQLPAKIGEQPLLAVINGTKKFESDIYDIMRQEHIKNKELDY

[2] = molecular target: T2, SpeMreB5 (Spiroplasma eriocheiris, UniProt A0A0H3XIQ3); assay: liposome cosedimentation (loss of membrane binding with nucleotide); settings: 1 mM nucleotide, SpiroLipid liposomes, 200 mM KCl, 1 mM MgCl2, pH 7.5
T2 construct: gene mreB5; full-length SpeMreB5, 6xHis tag, pCold-15b, E. coli BL21(DE3), codon-optimized
T2 sequence (A0A0H3XIQ3 1-350): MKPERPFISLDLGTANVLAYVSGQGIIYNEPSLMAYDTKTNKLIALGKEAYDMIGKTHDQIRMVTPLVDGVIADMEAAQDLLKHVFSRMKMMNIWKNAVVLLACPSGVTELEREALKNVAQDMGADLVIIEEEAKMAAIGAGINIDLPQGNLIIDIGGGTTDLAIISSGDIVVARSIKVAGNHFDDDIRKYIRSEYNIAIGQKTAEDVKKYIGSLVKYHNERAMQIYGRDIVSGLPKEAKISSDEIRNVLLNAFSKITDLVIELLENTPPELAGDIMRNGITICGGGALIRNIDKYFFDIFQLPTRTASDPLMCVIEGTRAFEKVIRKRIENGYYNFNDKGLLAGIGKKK

[3] = molecular target: PrS-SpeMreB1 T164A (Spiroplasma eriocheiris); assay: sedimentation assay (ultracentrifugation); buffer S (20 mM Tris-HCl pH 8.0, 1 M NaCl, 200 mM L-arginine-HCl, 5 mM DTT, 2 mM MgCl2) with 2 mM ATP; 3 h at room temperature; 100,000 rpm, 23 °C, 90 min; critical concentration as x-intercept of the linear fit
[4] = molecular target: PrS-SpeMreB1 WT (monomeric gel-filtration fraction) (Spiroplasma eriocheiris); assay: sedimentation assay (ultracentrifugation); buffer S with 2 mM AMPPNP; 3 h at room temperature; 100,000 rpm, 23 °C, 90 min; no linear fit possible (small pellet amounts)
[5] = molecular target: PrS-SpeMreB1 WT (monomeric gel-filtration fraction) (Spiroplasma eriocheiris); assay: sedimentation assay (ultracentrifugation); buffer S with 2 mM ADP; 3 h at room temperature; 100,000 rpm, 23 °C, 90 min; critical concentration as x-intercept of the linear fit
[6] = molecular target: PrS-SpeMreB1 WT (monomeric gel-filtration fraction) (Spiroplasma eriocheiris); assay: sedimentation assay (ultracentrifugation); buffer S (20 mM Tris-HCl pH 8.0, 1 M NaCl, 200 mM L-arginine-HCl, 5 mM DTT, 2 mM MgCl2) with 2 mM ATP; 3 h at room temperature; 100,000 rpm, 23 °C, 90 min; critical concentration as x-intercept of the linear fit

Nc1ncnc2c1ncn2[C@@H]1O[C@H](COP(=O)(O)OP(=O)(O)O)[C@@H](O)[C@H]1O [ADP]
sedimentation assay of polymerization [1]: PrS-SpeMreB1 was less polymerized in the presence of ADP | liposome cosedimentation (loss of membrane binding with nucleotide) [2]: SpeMreB5 did not bind to the liposomes in the presence of nucleotides

Nc1ncnc2c1ncn2[C@@H]1O[C@H](COP(=O)(O)OP(=O)(O)NP(=O)(O)O)[C@@H](O)[C@H]1O [AMPPNP]
liposome cosedimentation (loss of membrane binding with nucleotide) [2]: SpeMreB5 did not bind to the liposomes in the presence of nucleotides

Nc1ncnc2c1ncn2[C@@H]1O[C@H](COP(=O)(O)OP(=O)(O)OP(=O)(O)O)[C@@H](O)[C@H]1O [ATP]
liposome cosedimentation (loss of membrane binding with nucleotide) [2]: SpeMreB5 did not bind to the liposomes in the presence of nucleotides

PrS-SpeMreB1 T164A (natural protein)
critical concentration (CC) for polymerization [3]: 3 µM

PrS-SpeMreB1 WT (monomeric gel-filtration fraction) (natural protein)
critical concentration (CC) for polymerization [4]: > 7 µM | critical concentration (CC) for polymerization [5]: 3.8 µM | critical concentration (CC) for polymerization [6]: 0.41 µM
